Results published in US11077090B2, “Compounds and compositions and uses thereof” (Sunovion Pharmaceuticals Inc., priority 2016, dated 2021).
Like-named read-outs stand apart in the source and are kept apart here.

Test system: compound-treated mice
Test: Neuropharmacological assay (SmartCube): behavioral activity signature and minimal effective dose
Assay type: in vivo
Details: for minimal effective dose: Mus musculus, ip; for AD: ADHD (probability of activity signature) / AG: analgesic (probability of activity signature) / AX: anxiolytic (probability of activity signature) / CE: cognitive enhancer (probability of activity signature) / DP: anti-depressant (probability of activity signature) / MS: mood stabilizer (probability of activity signature) / PS: anti-psychotic (probability of activity signature) / SD: sedative hypnotic (probability of activity signature) / UN: uncharacterized CNS activity (probability of activity signature): i.p. 15 min before test, most efficacious dose(s)
How it was run: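 Mice dosed i.p. 15 min before test, compound in N-methyl-2-pyrrolidone/PEG/propylene glycol, 3 doses; video-captured behavior matched to reference-drug signatures, giving per-class probabilities at most efficacious dose. MED from doses typically 0.3–30 mpk, defined as lowest dose with ≥50% total activity.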

[1] = MED = dose having 50% or more total activity, read-out: Potency: minimal effective dose (MED), binned
[2] = MED = dose having 50% or more total activity, read-out: Potency: minimal effective dose (MED)
[3] = MED = dose having 50% or more total activity

Molecule | minimal effective dose [1] | AD: ADHD (probability of activity signature) | AG: analgesic (probability of activity signature) | AX: anxiolytic (probability of activity signature) | CE: cognitive enhancer (probability of activity signature) | DP: anti-depressant (probability of activity signature) | MS: mood stabilizer (probability of activity signature) | PS: anti-psychotic (probability of activity signature) | SD: sedative hypnotic (probability of activity signature) | UN: uncharacterized CNS activity (probability of activity signature) | minimal effective dose [2] | Potency: minimal effective dose (MED), binned (MED = dose having 50% or more total activity, hydrochloride) | MS: mood stabilizer (probability of activity signature) (hydrochloride) | SD: sedative hypnotic (probability of activity signature) (hydrochloride) | Potency: minimal effective dose (MED) [3] | Potency: minimal effective dose (MED), binned [3]
CCN(C)C(=O)Oc1ccc2c(c1)[C@H](N)[C@H](C)OC2.Cl [Example 281] | > 30 mg/kg | + (LOQ ≤ + <5%) | + (LOQ ≤ + <5%) | + (LOQ ≤ + <5%) | + (LOQ ≤ + <5%) | + (LOQ ≤ + <5%) | + (LOQ ≤ + <5%) | + (LOQ ≤ + <5%) | + (LOQ ≤ + <5%) | + (LOQ ≤ + <5%) |  |  |  |  |  | 
Cl.NC1COCc2ccc(Cl)cc21 (stereo not drawn) [Example 1, 6-Chloroisochroman-4-amine hydrochloride] |  | + (LOQ ≤ + <5%) | ++ (5% ≤ ++ <25%) | ++ (5% ≤ ++ <25%) | ++ (5% ≤ ++ <25%) | + (LOQ ≤ + <5%) | + (LOQ ≤ + <5%) | ++ (5% ≤ ++ <25%) | ++ (5% ≤ ++ <25%) | ++ (5% ≤ ++ <25%) | 10 to 30 mg/kg |  |  |  |  | 
C[C@H]1OCc2c(Cl)cccc2[C@@H]1N.Cl [Example 87] |  | + (LOQ ≤ + <5%) | ++ (5% ≤ ++ <25%) | ++ (5% ≤ ++ <25%) | ++ (5% ≤ ++ <25%) | ++ (5% ≤ ++ <25%) | + (LOQ ≤ + <5%) | ++ (5% ≤ ++ <25%) | ++ (5% ≤ ++ <25%) | +++ (25% ≤ +++ <50%) | 3 to 10 mg/kg |  |  |  |  | 
CC[C@H]1OCc2ccc(C)cc2[C@H]1N (single isomer, unassigned) [Example 180] | 3 to 10 mg/kg | + (LOQ ≤ + <5%) | ++ (5% ≤ ++ <25%) | ++ (5% ≤ ++ <25%) | ++ (5% ≤ ++ <25%) | ++ (5% ≤ ++ <25%) | + (LOQ ≤ + <5%) | ++ (5% ≤ ++ <25%) | + (LOQ ≤ + <5%) | ++++ (50% ≤ ++++) |  |  |  |  |  | 
Cl.NC1COCc2cccc(Cl)c21 (stereo not drawn) [Example 28] |  | + (LOQ ≤ + <5%) | ++ (5% ≤ ++ <25%) | ++ (5% ≤ ++ <25%) | ++ (5% ≤ ++ <25%) | ++ (5% ≤ ++ <25%) | + (LOQ ≤ + <5%) | ++ (5% ≤ ++ <25%) | + (LOQ ≤ + <5%) | +++ (25% ≤ +++ <50%) | 3 to 10 mg/kg |  |  |  |  | 
C[C@@H]1OCc2ccc3c(c2[C@@H]1N)CCCO3.Cl [Example 248] | 10 to 30 mg/kg | + (LOQ ≤ + <5%) | ++ (5% ≤ ++ <25%) | ++ (5% ≤ ++ <25%) | ++ (5% ≤ ++ <25%) | + (LOQ ≤ + <5%) | + (LOQ ≤ + <5%) | + (LOQ ≤ + <5%) | + (LOQ ≤ + <5%) | +++ (25% ≤ +++ <50%) |  |  |  |  |  | 
CC(C)[C@@H]1OCc2ccccc2[C@H]1N.Cl (relative stereo) [Example 274, trans-3-Isopropylisochroman-4-amine hydrochloride] |  | + (LOQ ≤ + <5%) | + (LOQ ≤ + <5%) | + (LOQ ≤ + <5%) | + (LOQ ≤ + <5%) | ++ (5% ≤ ++ <25%) |  | ++ (5% ≤ ++ <25%) |  | ++ (5% ≤ ++ <25%) |  | A (≤3 mpk) | +++ (25% ≤ +++ <50%) | ++ (5% ≤ ++ <25%) |  | 
CC1(C)OCC(N)c2ccccc21.Cl (stereo not drawn) [Example 29] |  | + (LOQ ≤ + <5%) | +++ (25% ≤ +++ <50%) | ++ (5% ≤ ++ <25%) | + (LOQ ≤ + <5%) | ++ (5% ≤ ++ <25%) | + (LOQ ≤ + <5%) | + (LOQ ≤ + <5%) | + (LOQ ≤ + <5%) | + (LOQ ≤ + <5%) | 10 to 30 mg/kg |  |  |  |  | 
C[C@@H]1OCc2cc(Cl)ccc2[C@@H]1N.Cl [Example 93] |  | + (LOQ ≤ + <5%) | ++ (5% ≤ ++ <25%) | +++ (25% ≤ +++ <50%) | + (LOQ ≤ + <5%) | ++ (5% ≤ ++ <25%) | + (LOQ ≤ + <5%) | ++ (5% ≤ ++ <25%) | + (LOQ ≤ + <5%) | + (LOQ ≤ + <5%) | 10 to 30 mg/kg |  |  |  |  | 
CN[C@@H]1COCc2c(Cl)cccc21 [Example 149] |  | + (LOQ ≤ + <5%) | ++ (5% ≤ ++ <25%) | ++ (5% ≤ ++ <25%) | ++ (5% ≤ ++ <25%) | ++ (5% ≤ ++ <25%) | + (LOQ ≤ + <5%) | +++ (25% ≤ +++ <50%) | ++ (5% ≤ ++ <25%) | +++ (25% ≤ +++ <50%) | < 3 mg/kg |  |  |  |  | 
CN[C@@H]1COCc2cccc(Cl)c21 [Example 145] |  | + (LOQ ≤ + <5%) | ++ (5% ≤ ++ <25%) | ++ (5% ≤ ++ <25%) | ++ (5% ≤ ++ <25%) | + (LOQ ≤ + <5%) | + (LOQ ≤ + <5%) | + (LOQ ≤ + <5%) | + (LOQ ≤ + <5%) | +++ (25% ≤ +++ <50%) |  |  |  |  | C (>10 to ≤30 mpk) | 
Cc1cccc2c1CO[C@H](C)[C@H]2N.Cl [Example 98] |  | + (LOQ ≤ + <5%) | ++ (5% ≤ ++ <25%) | ++ (5% ≤ ++ <25%) | ++ (5% ≤ ++ <25%) | ++ (5% ≤ ++ <25%) | + (LOQ ≤ + <5%) | ++ (5% ≤ ++ <25%) | ++ (5% ≤ ++ <25%) | ++++ (50% ≤ ++++) | 3 to 10 mg/kg |  |  |  |  | 
cis-3-Isopropylisochroman-4-amine hydrochloride [Example 273] |  | + (LOQ ≤ + <5%) | ++ (5% ≤ ++ <25%) | + (LOQ ≤ + <5%) | + (LOQ ≤ + <5%) | ++ (5% ≤ ++ <25%) | ++ (5% ≤ ++ <25%) | + (LOQ ≤ + <5%) | +++ (25% ≤ +++ <50%) | ++ (5% ≤ ++ <25%) |  |  |  |  |  | A (≤3 mpk)
CNC1COCc2ccc(C)c(C)c21.Cl (stereo not drawn) [Example 57, N,5,6-Trimethylisochroman-4-amine hydrochloride] |  | + (LOQ ≤ + <5%) | ++ (5% ≤ ++ <25%) | ++ (5% ≤ ++ <25%) | +++ (25% ≤ +++ <50%) | ++ (5% ≤ ++ <25%) | + (LOQ ≤ + <5%) | ++ (5% ≤ ++ <25%) | ++ (5% ≤ ++ <25%) | +++ (25% ≤ +++ <50%) | 3 to 10 mg/kg |  |  |  |  | 
C[C@H]1OCc2ccc3c(c2[C@@H]1N)CCCO3.Cl [Example 249] | 3 to 10 mg/kg | + (LOQ ≤ + <5%) | ++ (5% ≤ ++ <25%) | ++ (5% ≤ ++ <25%) | ++ (5% ≤ ++ <25%) | + (LOQ ≤ + <5%) | + (LOQ ≤ + <5%) | ++ (5% ≤ ++ <25%) | + (LOQ ≤ + <5%) | +++ (25% ≤ +++ <50%) |  |  |  |  |  | 
